The values that follow come from patent US20240158370A1, “CK1 alpha AND DUAL CK1 alpha / GSPT1 DEGRADING COMPOUNDS” (Innovo Therapeutics, Inc., priority 2022, published 2024).

In one assay the target is T1, CK1α (Homo sapiens, UniProt P48729+Q96SW2).
T1 construct: CSNK1A1-HiBit KI HEK293(LgBit) Cells; host or cells: HEK293(LgBit) knock-in cells
The experiment in a line: HiBiT degradation assay, CK1α, Procedure A. The class given is cell-based. The gist of the method:
(§1)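 10-pt dose response, 10–0.005 μM, 0.1% DMSO; cells 1×10^6/ml in DMEM/10% FBS, 6 h, 37° C; HiBiT lytic detection, luminescence; DC50 + Ymin by 4-parameter fit.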

The target of the next assay is GSPT1 (Homo sapiens, UniProt P15170+Q96SW2). The experiment in a line: HiBiT degradation assay, GSPT1, Procedure A. Format: cell-based. More on the design: HiBit-GSPT1 KI HEK293(LgBit) Cells; host or cells: HEK293(LgBit) knock-in cells. The gist of the method: as §1
For orientation: HiBiT is a short tag that completes a luciferase, so light tracks the accessible tagged protein.

SMILES strings stand for the structures.

Sequence of GSPT1 (P15170 whole entry): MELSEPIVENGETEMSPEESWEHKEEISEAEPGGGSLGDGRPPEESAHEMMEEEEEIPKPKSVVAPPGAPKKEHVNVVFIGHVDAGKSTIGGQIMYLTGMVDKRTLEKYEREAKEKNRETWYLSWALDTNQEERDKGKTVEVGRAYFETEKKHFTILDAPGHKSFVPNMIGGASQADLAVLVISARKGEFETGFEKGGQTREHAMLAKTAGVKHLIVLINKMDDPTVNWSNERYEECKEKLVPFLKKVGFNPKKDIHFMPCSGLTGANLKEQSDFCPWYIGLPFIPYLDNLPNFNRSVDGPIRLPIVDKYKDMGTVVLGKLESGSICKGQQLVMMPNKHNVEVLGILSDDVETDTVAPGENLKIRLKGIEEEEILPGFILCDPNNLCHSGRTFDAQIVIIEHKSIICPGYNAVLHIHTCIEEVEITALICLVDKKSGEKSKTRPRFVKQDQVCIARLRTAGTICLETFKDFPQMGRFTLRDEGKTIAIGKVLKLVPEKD
Sequence of GSPT1 (Q96SW2 whole entry): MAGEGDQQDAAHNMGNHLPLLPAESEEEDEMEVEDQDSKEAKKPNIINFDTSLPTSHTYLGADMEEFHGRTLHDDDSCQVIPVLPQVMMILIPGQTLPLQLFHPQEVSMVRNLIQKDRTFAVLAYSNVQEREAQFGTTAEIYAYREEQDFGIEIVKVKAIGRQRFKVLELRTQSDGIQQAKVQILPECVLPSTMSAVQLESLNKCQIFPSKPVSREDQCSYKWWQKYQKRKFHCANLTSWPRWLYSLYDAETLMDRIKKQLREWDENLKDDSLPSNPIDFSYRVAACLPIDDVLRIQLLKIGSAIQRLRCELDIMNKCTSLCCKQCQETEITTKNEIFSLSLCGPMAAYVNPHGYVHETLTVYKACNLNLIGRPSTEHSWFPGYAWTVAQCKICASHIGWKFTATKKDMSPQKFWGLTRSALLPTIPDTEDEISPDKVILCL
Sequence of GSPT1 (Q16531 whole entry partner): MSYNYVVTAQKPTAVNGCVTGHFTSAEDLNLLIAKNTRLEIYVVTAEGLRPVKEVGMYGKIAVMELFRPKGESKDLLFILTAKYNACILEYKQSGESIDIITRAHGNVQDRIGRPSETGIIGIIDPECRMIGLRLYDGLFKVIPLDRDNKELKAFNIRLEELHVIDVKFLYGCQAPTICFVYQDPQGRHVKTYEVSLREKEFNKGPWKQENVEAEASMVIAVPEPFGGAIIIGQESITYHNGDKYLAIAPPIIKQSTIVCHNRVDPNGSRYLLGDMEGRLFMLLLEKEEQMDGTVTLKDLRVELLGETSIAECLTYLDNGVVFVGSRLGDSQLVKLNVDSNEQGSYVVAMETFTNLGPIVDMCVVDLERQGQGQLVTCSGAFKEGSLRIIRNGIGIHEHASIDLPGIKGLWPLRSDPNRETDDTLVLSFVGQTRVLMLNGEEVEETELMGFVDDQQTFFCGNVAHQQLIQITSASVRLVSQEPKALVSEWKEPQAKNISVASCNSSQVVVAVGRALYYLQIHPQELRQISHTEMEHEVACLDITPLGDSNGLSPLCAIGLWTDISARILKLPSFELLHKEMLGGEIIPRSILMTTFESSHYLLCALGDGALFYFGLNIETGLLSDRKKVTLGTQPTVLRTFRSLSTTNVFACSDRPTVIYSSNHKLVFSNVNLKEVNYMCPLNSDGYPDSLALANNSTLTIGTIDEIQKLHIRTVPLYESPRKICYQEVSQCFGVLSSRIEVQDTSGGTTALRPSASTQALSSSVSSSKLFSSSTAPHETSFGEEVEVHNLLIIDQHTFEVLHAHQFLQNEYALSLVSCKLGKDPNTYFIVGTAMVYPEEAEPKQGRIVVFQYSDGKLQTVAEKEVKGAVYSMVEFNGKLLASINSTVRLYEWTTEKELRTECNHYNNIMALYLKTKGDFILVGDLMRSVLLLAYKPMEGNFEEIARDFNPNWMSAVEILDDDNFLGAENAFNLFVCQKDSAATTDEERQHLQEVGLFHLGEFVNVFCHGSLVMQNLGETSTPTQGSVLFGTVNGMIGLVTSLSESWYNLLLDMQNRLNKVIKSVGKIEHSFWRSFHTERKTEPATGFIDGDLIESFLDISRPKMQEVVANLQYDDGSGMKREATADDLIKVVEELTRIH
T1 sequence (P48729 whole entry): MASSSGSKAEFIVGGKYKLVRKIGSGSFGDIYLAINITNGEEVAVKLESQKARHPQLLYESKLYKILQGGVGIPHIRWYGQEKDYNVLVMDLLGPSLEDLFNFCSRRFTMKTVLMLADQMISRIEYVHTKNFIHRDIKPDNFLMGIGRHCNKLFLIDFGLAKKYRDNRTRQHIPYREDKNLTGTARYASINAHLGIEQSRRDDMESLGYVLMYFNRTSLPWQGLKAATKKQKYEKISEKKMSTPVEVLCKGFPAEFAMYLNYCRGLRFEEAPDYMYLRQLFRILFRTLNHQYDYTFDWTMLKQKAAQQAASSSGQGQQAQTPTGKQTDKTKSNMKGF
T1 sequence (Q96SW2 whole entry): as the sequence (Q96SW2 whole entry) above
T1 sequence (Q16531 whole entry partner): as the sequence (Q16531 whole entry partner) above

As usually defined, the DC50 is the midpoint of the concentration-degradation curve. `Cn1ncc(-c2ccc3c(c2)CN(C2CCC(=O)NC2=O)C3=O)c1-c1cccc(F)c1F` (stereo not shown) [Example 73]: at CK1α (six hours incubation), the “CK1α Ymin” value is “E (E = >25-75% remaining)” and the DC50 is less than 0.025 µM. Also, at GSPT1 (six hours incubation), the DC50 was no less than 0.025 µM and the “GSPT1 Ymin” value was “F (F = >75-100% remaining)”.

Regarding `Cn1cnc(-c2ccc3c(c2)CN(C2CCC(=O)NC2=O)C3=O)c1-c1ccc2occc2c1` (stereo not shown) [Example 489], on CK1α (six hours), the “CK1α Ymin” value is “C (C = 0-10% remaining)” and the 50% degradation concentration (DC50) is less than 0.025 µM. Further, on GSPT1 (six hours), the DC50 is less than 0.025 µM and the “GSPT1 Ymin” value is “E (E = >25-75% remaining)”.

Take `O=C1CCC(N2Cc3cc(-c4cnn(CC(F)(F)F)c4-c4ccccc4)ccc3C2=O)C(=O)N1` (stereo not shown) [Example 208, 3-(1-Oxo-5-(5-phenyl-1-(2,2,2-trifluoroethyl)-1H-pyrazol-4-yl)isoindolin-2-yl)piperidine-2,6-dione]: at CK1α (six hours incubation), the “CK1α Ymin” value was “D (D = >10- 25% remaining)” and the DC50 was less than 0.025 µM. On GSPT1 (six hours incubation), the DC50 is no less than 0.025 µM and the “GSPT1 Ymin” value was “F (F = >75-100% remaining)”.

Regarding `Cc1cccc(-c2c(-c3ccc4c(c3)CN(C3CCC(=O)NC3=O)C4=O)ncn2C)c1` (stereo not shown) [Example 162], at CK1α (six hours incubation), the “CK1α Ymin” value was “C (C = 0-10% remaining)” and the DC50 is less than 0.025 µM. In addition, at GSPT1 (six hours incubation), the DC50 was less than 0.025 µM and the “GSPT1 Ymin” value is given as “E (E = >25-75% remaining)”.

Turning to `Cn1ncc(-c2ccc3c(c2)CN(C2CCC(=O)NC2=O)C3=O)c1-c1ccc2c(c1)ncn2C` (stereo not shown) [Example 476], at CK1α (six hours), the “CK1α Ymin” value was “D (D = >10- 25% remaining)” and the DC50 is no less than 0.025 µM. On GSPT1 (six hours), the half-maximal degradation concentration (DC50) was no less than 0.025 µM and the “GSPT1 Ymin” value is listed as “F (F = >75-100% remaining)”.

As to `Cn1nc(-c2ccc3c(c2)CN(C2CCC(=O)NC2=O)C3=O)nc1N1CCCCCC1` (stereo not shown) [Example 611, 3-(5-(5-(azepan-1-yl)-1-methyl-1H-1,2,4-triazol-3-yl)-1-oxoisoindolin-2-yl)piperidine-2,6-dione], at CK1α (six hours), the “CK1α Ymin” value is recorded as “C (C = 0-10% remaining)” and the DC50 was less than 0.025 µM. In addition, at GSPT1 (six hours), the DC50 was no less than 0.025 µM and the “GSPT1 Ymin” value was “F (F = >75-100% remaining)”.

As to `Cn1cnc(-c2ccc3c(c2)CN(C2CCC(=O)NC2=O)C3=O)c1-c1ccc(Oc2cccnc2)cc1` (stereo not shown) [Example 308], at CK1α (six hours incubation), the “CK1α Ymin” value is given as “D (D = >10- 25% remaining)” and the DC50 was less than 0.025 µM. At GSPT1 (six hours incubation), the DC50 is no less than 0.025 µM and the “GSPT1 Ymin” value was “F (F = >75-100% remaining)”.

Regarding `Cc1ccc(-c2nc(-c3ccc4c(c3)CN(C3CCC(=O)NC3=O)C4=O)cn2C)cc1Cl` (stereo not shown) [Example 564], at CK1α (six hours), the “CK1α Ymin” value is reported as “C (C = 0-10% remaining)” and the DC50 was less than 0.025 µM. Besides, at GSPT1 (six hours), the DC50 was less than 0.025 µM and the “GSPT1 Ymin” value is “F (F = >75-100% remaining)”.

For the compound `Cn1ncc(-c2ccc3c(c2)CN(C2CCC(=O)NC2=O)C3=O)c1-c1cccc(C(N)=O)c1` (stereo not shown) [Example 138], on CK1α (six hours incubation), the “CK1α Ymin” value was “E (E = >25-75% remaining)” and the DC50 is no less than 0.025 µM. On GSPT1 (six hours incubation), the DC50 is less than 0.025 µM and the “GSPT1 Ymin” value is on record as “F (F = >75-100% remaining)”.

As for `COCc1ccc(-c2c(-c3ccc4c(c3)CN(C3CCC(=O)NC3=O)C4=O)cnn2C)cc1` (stereo not shown) [Example 141], on CK1α (six hours incubation), the “CK1α Ymin” value is “E (E = >25-75% remaining)” and the DC50 was less than 0.025 µM. On GSPT1 (six hours incubation), the DC50 is no less than 0.025 µM and the “GSPT1 Ymin” value is recorded as “F (F = >75-100% remaining)”.

Regarding `Cn1ncc(-c2ccc3c(c2)CN(C2CCC(=O)NC2=O)C3=O)c1-c1ccc(CN2CCNCC2)cc1` (stereo not shown) [Example 414], on CK1α (six hours), the “CK1α Ymin” value is “E (E = >25-75% remaining)” and the DC50 is no less than 0.025 µM. At GSPT1 (six hours), the DC50 is no less than 0.025 µM and the “GSPT1 Ymin” value is recorded as “F (F = >75-100% remaining)”.

In the case of `CN1Cc2cccc(-c3c(-c4ccc5c(c4)CN(C4CCC(=O)NC4=O)C5=O)ncn3C)c2C1` (stereo not shown) [Example 264], on CK1α (six hours incubation), the “CK1α Ymin” value is on record as “E (E = >25-75% remaining)” and the DC50 was no less than 0.025 µM. At GSPT1 (six hours incubation), the DC50 was less than 0.025 µM and the “GSPT1 Ymin” value is listed as “E (E = >25-75% remaining)”.

Consider `Cn1ncc(-c2ccc3c(c2)CN(C2CCC(=O)NC2=O)C3=O)c1-c1cccc(CN2CCCC2)c1` (stereo not shown) [Example 158], for which, on CK1α (six hours incubation), the “CK1α Ymin” value is given as “E (E = >25-75% remaining)” and the DC50 was no less than 0.025 µM. On GSPT1 (six hours incubation), the DC50 was no less than 0.025 µM and the “GSPT1 Ymin” value was “F (F = >75-100% remaining)”.

On to `Cn1cnc(-c2ccc3c(c2)CN(C2CCC(=O)NC2=O)C3=O)c1-c1ccc(F)cc1C(F)(F)F` (stereo not shown) [Example 445], for which, on CK1α (six hours), the “CK1α Ymin” value is recorded as “E (E = >25-75% remaining)” and the DC50 is less than 0.025 µM. Also, on GSPT1 (six hours), the DC50 was no less than 0.025 µM and the “GSPT1 Ymin” value is “F (F = >75-100% remaining)”.

`Cn1cnc(-c2ccc3c(c2)CN(C2CCC(=O)NC2=O)C3=O)c1-c1ccc(F)cc1F` (stereo not shown) [Example 176]: at CK1α (six hours incubation), the “CK1α Ymin” value is listed as “D (D = >10- 25% remaining)” and the DC50 is less than 0.025 µM. For the same compound, on GSPT1 (six hours incubation), the DC50 is less than 0.025 µM and the “GSPT1 Ymin” value is recorded as “E (E = >25-75% remaining)”.

Take `Cc1nc(-c2ccc3c(c2)CN(C2CCC(=O)NC2=O)C3=O)c(-c2cncnc2)n1C` (stereo not shown) [Example 544, 3-(5-(1,2-dimethyl-5-(pyrimidin-5-yl)-1H-imidazol-4-yl)-1-oxoisoindolin-2-yl)piperidine-2,6-dione]: on CK1α (six hours), the “CK1α Ymin” value was “E (E = >25-75% remaining)” and the DC50 was no less than 0.025 µM. Also, at GSPT1 (six hours), the DC50 was no less than 0.025 µM and the “GSPT1 Ymin” value is “F (F = >75-100% remaining)”.

Take `Cn1ncc(-c2ccc3c(c2)CN(C2CCC(=O)NC2=O)C3=O)c1-c1cccc(Cl)c1` (stereo not shown) [Example 129]: at CK1α (six hours incubation), the “CK1α Ymin” value is on record as “E (E = >25-75% remaining)” and the DC50 is less than 0.025 µM. At GSPT1 (six hours incubation), the DC50 was no less than 0.025 µM and the “GSPT1 Ymin” value is recorded as “F (F = >75-100% remaining)”.

`Cn1cc(-c2ccc3c(c2)CN(C2CCC(=O)NC2=O)C3=O)nc1-c1cc(F)cc(F)c1` (stereo not shown) [Example 555]: on CK1α (six hours), the “CK1α Ymin” value is recorded as “C (C = 0-10% remaining)” and the DC50 is less than 0.025 µM. Also, on GSPT1 (six hours), the DC50 was no less than 0.025 µM and the “GSPT1 Ymin” value was “F (F = >75-100% remaining)”.

For the compound `Cn1ncc(-c2ccc3c(c2)CN(C2CCC(=O)NC2=O)C3=O)c1-c1cnn(C2CCC2)c1` (stereo not shown) [Example 475], at CK1α (six hours), the “CK1α Ymin” value is “E (E = >25-75% remaining)” and the 50% degradation concentration (DC50) is no less than 0.025 µM. At GSPT1 (six hours), the DC50 is less than 0.025 µM and the “GSPT1 Ymin” value was “F (F = >75-100% remaining)”.

With `CC(C)c1ccccc1-c1c(-c2ccc3c(c2)CN(C2CCC(=O)NC2=O)C3=O)ncn1C` (stereo not shown) [Example 182], at CK1α (six hours incubation), the “CK1α Ymin” value is recorded as “E (E = >25-75% remaining)” and the DC50 is less than 0.025 µM. On GSPT1 (six hours incubation), the DC50 was no less than 0.025 µM and the “GSPT1 Ymin” value is given as “F (F = >75-100% remaining)”.

In the case of `Cc1cc(-c2c(-c3ccc4c(c3)CN(C3CCC(=O)NC3=O)C4=O)ncn2C)ccc1Cl` (stereo not shown) [Example 200], at CK1α (six hours incubation), the “CK1α Ymin” value is “D (D = >10- 25% remaining)” and the DC50 is less than 0.025 µM. On GSPT1 (six hours incubation), the DC50 was less than 0.025 µM and the “GSPT1 Ymin” value is on record as “E (E = >25-75% remaining)”.

`Cn1ncc(-c2ccc3c(c2)CN(C2CCC(=O)NC2=O)C3=O)c1-c1cccc(C#N)c1` (stereo not shown) [Example 123]: at CK1α (six hours incubation), the “CK1α Ymin” value is recorded as “E (E = >25-75% remaining)” and the DC50 was less than 0.025 µM. In addition, on GSPT1 (six hours incubation), the DC50 was no less than 0.025 µM and the “GSPT1 Ymin” value is recorded as “F (F = >75-100% remaining)”.
